Measured values: patent US20230055237A1, “COMPOUNDS AND METHODS FOR THE TREATMENT OF CYSTIC FIBROSIS” (Flatley Discovery Lab, LLC, priority 2019, published 2023)

Molecular target: T1, CFTR (Homo sapiens, UniProt P13569, DEL508-508)
T1 construct: Primary CF airway epithelial cells were obtained from the UNC Cystic Fibrosis Tissue Procurement and Cell Culture Core; host or cells: primary CF airway epithelial cells, differentiated at the air-liquid interface
Assay: Equivalent current assay in primary CF airway epithelial cells (NAUC, combination with 1st site corrector FDL169 or VX-809)
Assay type: cell-based
Conditions: 37° C., 24 h

[1] = test compound 1 μM in combination with 1st site corrector FDL169 (3 μM)
[2] = test compound 3 μM in combination with 1st site corrector FDL169 (3 μM)
[3] = test compound 10 μM in combination with 1st site corrector FDL169 (3 μM)
[4] = test compound 3 μM in combination with 1st site corrector VX-809 (3 μM)
[5] = test compound 10 μM in combination with 1st site corrector VX-809 (3 μM)
[6] = test compound 1 μM in combination with 1st site corrector VX-809 (3 μM)

T1 sequence (P13569 with tags, fused parts or gaps DEL508-508): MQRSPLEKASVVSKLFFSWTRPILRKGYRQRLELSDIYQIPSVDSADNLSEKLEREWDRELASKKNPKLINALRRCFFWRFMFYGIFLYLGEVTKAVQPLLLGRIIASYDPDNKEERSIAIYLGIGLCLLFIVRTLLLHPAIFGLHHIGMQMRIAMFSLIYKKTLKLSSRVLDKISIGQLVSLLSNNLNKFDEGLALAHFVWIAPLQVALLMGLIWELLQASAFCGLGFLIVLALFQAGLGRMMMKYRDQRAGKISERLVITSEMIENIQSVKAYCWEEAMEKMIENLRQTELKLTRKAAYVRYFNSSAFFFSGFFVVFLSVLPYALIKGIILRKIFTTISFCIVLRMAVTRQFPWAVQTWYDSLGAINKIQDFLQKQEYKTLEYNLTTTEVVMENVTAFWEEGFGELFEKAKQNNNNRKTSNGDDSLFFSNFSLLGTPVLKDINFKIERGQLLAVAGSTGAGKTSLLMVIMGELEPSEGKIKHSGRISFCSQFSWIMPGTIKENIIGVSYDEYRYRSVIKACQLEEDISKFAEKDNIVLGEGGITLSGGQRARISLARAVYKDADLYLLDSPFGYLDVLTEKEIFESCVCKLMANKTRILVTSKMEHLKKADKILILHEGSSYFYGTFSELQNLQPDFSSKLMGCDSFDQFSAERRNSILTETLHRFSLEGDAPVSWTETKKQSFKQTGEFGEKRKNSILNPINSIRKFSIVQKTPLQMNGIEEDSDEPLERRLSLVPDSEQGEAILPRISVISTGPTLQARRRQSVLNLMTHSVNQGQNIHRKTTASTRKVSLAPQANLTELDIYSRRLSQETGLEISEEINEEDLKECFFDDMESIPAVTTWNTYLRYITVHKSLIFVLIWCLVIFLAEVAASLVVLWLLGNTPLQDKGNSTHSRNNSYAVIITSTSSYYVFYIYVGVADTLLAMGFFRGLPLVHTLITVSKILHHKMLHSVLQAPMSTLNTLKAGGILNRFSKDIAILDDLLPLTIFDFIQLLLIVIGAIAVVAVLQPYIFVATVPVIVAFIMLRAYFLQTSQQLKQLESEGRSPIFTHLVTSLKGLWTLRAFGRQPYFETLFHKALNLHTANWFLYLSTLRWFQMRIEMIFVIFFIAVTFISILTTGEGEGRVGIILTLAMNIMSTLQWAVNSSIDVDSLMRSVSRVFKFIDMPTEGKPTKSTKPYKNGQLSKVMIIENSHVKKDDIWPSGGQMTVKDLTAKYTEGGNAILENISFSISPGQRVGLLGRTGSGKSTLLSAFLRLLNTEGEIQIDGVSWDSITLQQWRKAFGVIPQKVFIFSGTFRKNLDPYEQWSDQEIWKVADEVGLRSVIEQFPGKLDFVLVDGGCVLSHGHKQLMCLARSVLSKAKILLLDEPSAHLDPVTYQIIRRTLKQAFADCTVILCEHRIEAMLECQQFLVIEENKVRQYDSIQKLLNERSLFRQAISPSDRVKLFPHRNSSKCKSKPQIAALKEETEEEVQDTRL

Row | Compound | Nauc @ 1 μM [1] | Nauc @ 3 μM [2] | Nauc @ 10 μM [3] | Nauc @ 3 μM [4] | Nauc @ 10 μM [5] | Nauc @ 1 μM [6]
1 | O=C(O)[C@H]1[C@@H](C(=O)N(CC23CC(F)(C2)C3)c2cc(Cl)cc(Cl)c2)[C@H]2CC(F)(F)CN2[C@]12C(=O)Nc1c(Cl)cc(Cl)cc12 [Example 188] | +++ (NAUC “+++” refers to an observed NAUC>170% of positive control) | ++ (NAUC “++” refers to an observed NAUC 170-140% of positive control) | ++ (NAUC “++” refers to an observed NAUC 170-140% of positive control) | – | – | –
2 | O=C(NCCc1ccccc1Cl)C1C2CC(F)(F)CN2C2(C(=O)Nc3c(Cl)cc(Cl)cc32)C1C(=O)O (stereo not drawn) [Example 50] | – | – | – | ++ (NAUC “++” refers to an observed NAUC 170-140% of positive control) | +++ (NAUC “+++” refers to an observed NAUC>170% of positive control) | –
3 | CC(C)(C)CN(C(=O)[C@H]1[C@H]2CC(F)(F)CN2[C@]2(C(=O)Nc3c(Cl)cc(Cl)cc32)[C@H]1C(=O)O)c1cc(Cl)cc(Cl)c1 [Example 110, (1′R,2′S,3R,7a′R)-5,7-dichloro-1-((3,5-dichlorophenyl)(neopentyl)carbamoyl)-6′,6′-difluoro-2-oxo-1′,2′,5′,6′,7′,7a′-hexahydrospiro[indoline-3,3′-pyrrolizine]-2′-carboxylic acid] | +++ (NAUC “+++” refers to an observed NAUC>170% of positive control) | +++ (NAUC “+++” refers to an observed NAUC>170% of positive control) | + (NAUC “+” refers to an observed NAUC <140% of positive control) | – | – | –
4 | O=C(Nc1cc(Cl)cc(Cl)c1)C1C2CC3(CC3)CN2C2(C(=O)Nc3c(Cl)cc(Cl)cc32)C1C(=O)O (stereo not drawn) [Example 16] | – | – | – | +++ (NAUC “+++” refers to an observed NAUC>170% of positive control) | +++ (NAUC “+++” refers to an observed NAUC>170% of positive control) | –
5 | CC(C)(C)CCN(C(=O)[C@H]1[C@H]2CC(F)(F)CN2[C@]2(C(=O)Nc3c(Cl)cc(Cl)cc32)[C@H]1C(=O)O)c1cc(Cl)cc(Cl)c1 [Example 182] | +++ (NAUC “+++” refers to an observed NAUC>170% of positive control) | ++ (NAUC “++” refers to an observed NAUC 170-140% of positive control) | – | – | – | –
6 | CONC(=O)[C@H]1[C@@H](C(=O)Nc2cc(Cl)cc(Cl)c2)[C@H]2C[C@](C)(O)CN2[C@]12C(=O)Nc1c(Cl)cc(Cl)cc12 [Example 246, (1′R,2′S,6′S,7a′R)-5,7-dichloro-N1′-(3,5-dichlorophenyl)-6′-hydroxy-N2′-methoxy-6′-methyl-2-oxo-1′,2′,5′,6′,7′,7a′-hexahydrospiro[indoline-3,3′-pyrrolizine]-1′,2′-dicarboxamide] | – | – | – | + (NAUC “+” refers to an observed NAUC <140% of positive control) | +++ (NAUC “+++” refers to an observed NAUC>170% of positive control) | + (NAUC “+” refers to an observed NAUC <140% of positive control)
7 | CC(C)(C)CN(C(=O)[C@H]1[C@@H](C(=O)O)C2(C(=O)Nc3c(Cl)cc(Cl)cc32)N2CC(C)(C)C[C@@H]12)c1cc(Cl)cc(Cl)c1 (single isomer, unassigned) [Example 274.6b, (1′S,2′R,7a′S)-5,7-dichloro-1′-((3,5-dichlorophenyl)(neopentyl)carbamoyl)-6′,6′-dimethyl-2-oxo-1′,2′,5′,6′,7′,7a′-hexahydrospiro[indoline-3,3′-pyrrolizine]-2′-carboxylic acid] | +++ (NAUC “+++” refers to an observed NAUC>170% of positive control) | ++ (NAUC “++” refers to an observed NAUC 170-140% of positive control) | + (NAUC “+” refers to an observed NAUC <140% of positive control) | – | – | –
8 | O=C(NCCc1ccc(Cl)cc1)C1C2CC(F)(F)CN2C2(C(=O)Nc3c(Cl)cc(Cl)cc32)C1C(=O)O (stereo not drawn) [Example 52] | – | – | – | ++ (NAUC “++” refers to an observed NAUC 170-140% of positive control) | +++ (NAUC “+++” refers to an observed NAUC>170% of positive control) | –
9 | CC(C)(CN(C(=O)[C@H]1[C@H]2CC(F)(F)CN2[C@]2(C(=O)Nc3c(Cl)cc(Cl)cc32)[C@H]1C(=O)O)c1cc(Cl)cc(Cl)c1)C(F)(F)F [Example 154] | +++ (NAUC “+++” refers to an observed NAUC>170% of positive control) | +++ (NAUC “+++” refers to an observed NAUC>170% of positive control) | + (NAUC “+” refers to an observed NAUC <140% of positive control) | – | – | –
10 | O=C(Nc1cc(Cl)cc(Cl)c1)C1C(C(F)(F)c2ccc(Cl)cc2)NC2(C(=O)Nc3c(Cl)cc(Cl)cc32)C1C(=O)O (stereo not drawn) [Example 67.9b, 5,7-dichloro-5,7′-((4-chlorophenyl)difluoromethyl)-4′-((3,5-dichlorophenyl)carbamoyl)-2-oxospiro[indoline-3,2′-pyrrolidine]-3′-carboxylic acid] | – | – | – | ++ (NAUC “++” refers to an observed NAUC 170-140% of positive control) | +++ (NAUC “+++” refers to an observed NAUC>170% of positive control) | + (NAUC “+” refers to an observed NAUC <140% of positive control)
11 | O=C(Nc1cc(Cl)cc(Cl)c1)C1C(C(F)(F)F)NC2(C(=O)Nc3c(Cl)cc(Cl)cc32)C1C(=O)O (stereo not drawn) [Example 35] | – | – | – | +++ (NAUC “+++” refers to an observed NAUC>170% of positive control) | +++ (NAUC “+++” refers to an observed NAUC>170% of positive control) | –
12 | O=C(Nc1cc(Cl)cc(Cl)c1)C1C2C[C@@](O)(C(F)(F)F)CN2C2(C(=O)Nc3c(Cl)cc(Cl)cc32)C1C(=O)O (stereo partly drawn) [Example 58] | – | – | – | + (NAUC “+” refers to an observed NAUC <140% of positive control) | +++ (NAUC “+++” refers to an observed NAUC>170% of positive control) | –
13 | CN(C(=O)[C@H]1[C@@H](C(F)(F)F)NC2(C(=O)Nc3c(Cl)cc(Cl)cc32)[C@H]1C(=O)O)c1cc(Cl)cc(Cl)c1 (single isomer, unassigned) [Example 269b] | ++ (NAUC “++” refers to an observed NAUC 170-140% of positive control) | +++ (NAUC “+++” refers to an observed NAUC>170% of positive control) | +++ (NAUC “+++” refers to an observed NAUC>170% of positive control) | +++ (NAUC “+++” refers to an observed NAUC>170% of positive control) | +++ (NAUC “+++” refers to an observed NAUC>170% of positive control) | +++ (NAUC “+++” refers to an observed NAUC>170% of positive control)
14 | C[C@]1(OCc2ccccc2)C[C@@H]2[C@H](C(=O)N(CC3CCCC3)c3cc(Cl)cc(Cl)c3)[C@H](C(=O)O)[C@@]3(C(=O)Nc4c(Cl)cc(Cl)cc43)N2C1 [Example 94] | ++ (NAUC “++” refers to an observed NAUC 170-140% of positive control) | ++ (NAUC “++” refers to an observed NAUC 170-140% of positive control) | – | – | – | –
15 | CN(C(=O)[C@H]1[C@@H](C(F)(F)F)NC2(C(=O)N(C)c3c(Cl)cc(Cl)cc32)[C@H]1C(=O)O)c1cc(Cl)cc(Cl)c1 (mixture of isomers) [Example 271, rac-(3′S,4′R,5′S)-5,7-dichloro-4′-((3,5-dichlorophenyl)(methyl)carbamoyl)-1-methyl-2-oxo-5′-(trifluoromethyl)spiro[indoline-3,2′-pyrrolidine]-3′-carboxylic acid] | – | – | – | +++ (NAUC “+++” refers to an observed NAUC>170% of positive control) | + (NAUC “+” refers to an observed NAUC <140% of positive control) | + (NAUC “+” refers to an observed NAUC <140% of positive control)
16 | CN(C(=O)[C@H]1[C@@H](C(=O)NCC(F)(F)F)[C@]2(C(=O)Nc3c(Cl)cc(Cl)cc32)N2CC(F)(F)C[C@@H]12)c1cc(Cl)cc(Cl)c1 (single isomer, unassigned) [Example 232a] | – | – | – | + (NAUC “+” refers to an observed NAUC <140% of positive control) | + (NAUC “+” refers to an observed NAUC <140% of positive control) | + (NAUC “+” refers to an observed NAUC <140% of positive control)
17 | O=C(Nc1cc(Cl)cc(Cl)c1F)C1C2CC(F)(F)CN2C2(C(=O)Nc3c(Cl)cc(Cl)cc32)C1C(=O)O (stereo not drawn) [Example 42] | – | – | – | +++ (NAUC “+++” refers to an observed NAUC>170% of positive control) | +++ (NAUC “+++” refers to an observed NAUC>170% of positive control) | –
18 | CC(=O)NNC(=O)[C@H]1[C@@H](C(=O)Nc2cc(Cl)cc(Cl)c2)[C@H]2CCCN2[C@]12C(=O)Nc1c(Cl)cc(Cl)cc12 (single isomer, unassigned) [Example 242, (1′R,2′S,7a′R)-2′-(2-acetylhydrazine-1-carbonyl)-5,7-dichloro-N-(3,5-dichlorophenyl)-2-oxo-1′,2′,5′,6′,7′,7a′-hexahydrospiro[indoline-3,3′-pyrrolizine]-1-carboxamide] | – | – | – | + (NAUC “+” refers to an observed NAUC <140% of positive control) | + (NAUC “+” refers to an observed NAUC <140% of positive control) | + (NAUC “+” refers to an observed NAUC <140% of positive control)
19 | O=C(Nc1cc(Cl)c(OC(F)F)c(Cl)c1)C1C2CC3(CC3)CN2C2(C(=O)Nc3c(Cl)cc(Cl)cc32)C1C(=O)O (stereo not drawn) [Example 12] | – | – | – | +++ (NAUC “+++” refers to an observed NAUC>170% of positive control) | +++ (NAUC “+++” refers to an observed NAUC>170% of positive control) | –
20 | O=C(Nc1nccc2cccnc12)[C@H]1[C@H]2CC(F)(F)CN2[C@]2(C(=O)Nc3c(Cl)cc(Cl)cc32)[C@H]1C(=O)O [Example 135] | – | – | – | + (NAUC “+” refers to an observed NAUC <140% of positive control) | + (NAUC “+” refers to an observed NAUC <140% of positive control) | + (NAUC “+” refers to an observed NAUC <140% of positive control)
